Legend:
Assay in all cases: relative viability (nuclei count vs DMSO), 5 days (fraction); higher = more cells survive
[1] = compound: CC(O)(CS(=O)(=O)c1ccc(F)cc1)C(=O)Nc1ccc(C#N)c(C(F)(F)F)c1 [Bicalutamide] + Nc1nc2[nH]cc(CCc3ccc(C(=O)N[C@@H](CCC(=O)O)C(=O)O)cc3)c2c(=O)[nH]1 [Pemetrexed] (partner 0.2 µM)
Outline: (§1)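 Relative viability equals treated-well nuclei counts divided by vehicle-well nuclei counts. Counts came from 4× images of lung cancer cell lines grown in 1536-well plates for 5 days after pin-tool dosing on the day after seeding. Dosing used one drug alone or a fixed anchor-drug dose plus five library-drug doses (not always all listed) in √10 steps, and values are medians of duplicate plates.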

[2] = compound: CC(O)(CS(=O)(=O)c1ccc(F)cc1)C(=O)Nc1ccc(C#N)c(C(F)(F)F)c1 [Bicalutamide] + CC(=O)Nc1cccc(-n2c(=O)n(C3CC3)c(=O)c3c(Nc4ccc(I)cc4F)n(C)c(=O)c(C)c32)c1 [Trametinib] (partner 0.02 µM)
Outline: as §1

[3] = compound: CC(O)(CS(=O)(=O)c1ccc(F)cc1)C(=O)Nc1ccc(C#N)c(C(F)(F)F)c1 [Bicalutamide] + COc1cc2c(Oc3ccc(NC(=O)C4(C(=O)Nc5ccc(F)cc5)CC4)cc3F)ccnc2cc1OCCCN1CCOCC1 [Foretinib] (partner 0.25 µM)
Outline: as §1

[4] = compound: C(C(=O)C(=O)O)Br [Bromopyruvate] + Nc1nc2[nH]cc(CCc3ccc(C(=O)N[C@@H](CCC(=O)O)C(=O)O)cc3)c2c(=O)[nH]1 [Pemetrexed] (partner 0.2 µM)
Outline: as §1

NCI-H1793
relative viability ([1]; first compound 0.08 µM): 0.914
relative viability ([1]; first compound 0.8 µM): 1.07
relative viability ([1]; first compound 2.53 µM): 0.907
relative viability ([2]; first compound 0.08 µM): 0.382
relative viability ([2]; first compound 0.8 µM): 0.448
relative viability ([2]; first compound 2.53 µM): 0.439
relative viability ([3]; first compound 0.08 µM): 0.796
relative viability ([3]; first compound 0.253 µM): 0.553
relative viability ([3]; first compound 0.8 µM): 0.983
relative viability ([3]; first compound 2.53 µM): 0.792
relative viability ([4]; first compound 1 µM): 0.91
relative viability ([4]; first compound 3.162 µM): 1.18
relative viability ([4]; first compound 10 µM): 0.989
relative viability ([4]; first compound 31.62 µM): 0.906
relative viability ([4]; first compound 100 µM): 1.16

NCI-H596
relative viability ([1]; first compound 0.08 µM): 0.489
relative viability ([1]; first compound 0.253 µM): 0.459
relative viability ([1]; first compound 0.8 µM): 0.56
relative viability ([1]; first compound 2.53 µM): 0.552
relative viability ([2]; first compound 0.08 µM): 0.76
relative viability ([2]; first compound 0.253 µM): 0.765
relative viability ([2]; first compound 0.8 µM): 0.994
relative viability ([2]; first compound 2.53 µM): 0.952
relative viability ([3]; first compound 0.08 µM): 0.986
relative viability ([3]; first compound 0.253 µM): 0.87
relative viability ([3]; first compound 0.8 µM): 0.976
relative viability ([3]; first compound 2.53 µM): 0.946
relative viability ([4]; first compound 1 µM): 0.546
relative viability ([4]; first compound 3.162 µM): 0.522
relative viability ([4]; first compound 10 µM): 0.55
relative viability ([4]; first compound 31.62 µM): 0.48
relative viability ([4]; first compound 100 µM): 0.59

NCI-H520
relative viability ([1]; first compound 0.08 µM): 0.846
relative viability ([1]; first compound 0.253 µM): 0.635
relative viability ([1]; first compound 0.8 µM): 0.81
relative viability ([1]; first compound 2.53 µM): 0.635
relative viability ([2]; first compound 0.08 µM): 0.725
relative viability ([2]; first compound 0.253 µM): 0.363
relative viability ([2]; first compound 0.8 µM): 0.939
relative viability ([2]; first compound 2.53 µM): 0.432
relative viability ([3]; first compound 0.08 µM): 0.856
relative viability ([3]; first compound 0.253 µM): 0.708
relative viability ([3]; first compound 0.8 µM): 0.773
relative viability ([3]; first compound 2.53 µM): 0.621
relative viability ([4]; first compound 1 µM): 0.64
relative viability ([4]; first compound 3.162 µM): 0.713
relative viability ([4]; first compound 10 µM): 0.691
relative viability ([4]; first compound 31.62 µM): 0.598
relative viability ([4]; first compound 100 µM): 0.629

EKVX
relative viability ([1]; first compound 0.08 µM): 0.378
relative viability ([1]; first compound 0.253 µM): 0.335
relative viability ([1]; first compound 0.8 µM): 0.392
relative viability ([1]; first compound 2.53 µM): 0.391
relative viability ([2]; first compound 0.08 µM): 0.319
relative viability ([2]; first compound 0.253 µM): 0.31
relative viability ([2]; first compound 0.8 µM): 0.359
relative viability ([2]; first compound 2.53 µM): 0.283
relative viability ([3]; first compound 0.08 µM): 0.749
relative viability ([3]; first compound 0.253 µM): 0.757
relative viability ([3]; first compound 0.8 µM): 0.95
relative viability ([3]; first compound 2.53 µM): 0.752
relative viability ([4]; first compound 1 µM): 0.396
relative viability ([4]; first compound 3.162 µM): 0.424
relative viability ([4]; first compound 10 µM): 0.376
relative viability ([4]; first compound 31.62 µM): 0.372
relative viability ([4]; first compound 100 µM): 0.438

NCI-H358
relative viability ([1]; first compound 0.08 µM): 0.174
relative viability ([1]; first compound 0.253 µM): 0.17
relative viability ([1]; first compound 0.8 µM): 0.218
relative viability ([1]; first compound 2.53 µM): 0.176
relative viability ([2]; first compound 0.08 µM): 0.161
relative viability ([2]; first compound 0.253 µM): 0.128
relative viability ([2]; first compound 0.8 µM): 0.125
relative viability ([2]; first compound 2.53 µM): 0.132
relative viability ([3]; first compound 0.08 µM): 0.767
relative viability ([3]; first compound 0.253 µM): 0.565
relative viability ([3]; first compound 0.8 µM): 0.958
relative viability ([3]; first compound 2.53 µM): 0.73
relative viability ([4]; first compound 1 µM): 0.147
relative viability ([4]; first compound 3.162 µM): 0.145
relative viability ([4]; first compound 10 µM): 0.164
relative viability ([4]; first compound 31.62 µM): 0.17
relative viability ([4]; first compound 100 µM): 0.183
